Conditions: 298.15 K

Row | Compound | solubility (mole fraction) (in acetone) | solubility (mole fraction) (in acetonitrile) | solubility (mole fraction) (in chlorobenzene) | solubility (mole fraction) (in chloroform) | solubility (mole fraction) (in ethanol) | solubility (mole fraction) (in n-hexane) | solubility (mole fraction) (in tetrachloromethane) | solubility (mole fraction) (in cyclohexane) | solubility (mole fraction) (in ethyl acetate) | solubility (mole fraction) (in ethylene glycol) | solubility (mole fraction) (in isopropanol) | solubility (mole fraction) (in methanol) | solubility (mole fraction) (in n-heptane) | solubility (mole fraction) (in n-pentane) | solubility (mole fraction) (in n-propanol) | solubility (mole fraction) (in toluene)
1 | c1ccc2cc3ccccc3cc2c1 | 0.00318 | 0.000765 | 0.00946 | 0.00995 | 0.000428 | 0.0012 | 0.00481 |  |  |  |  |  |  |  |  | 
2 | COc1ccc2c(c1)c(CC(=O)O)c(C)n2C(=O)c1ccc(Cl)cc1 | 0.0234 | 0.00239 | 0.0023 | 0.00876 | 0.00441 | 4.84e-07 | 4.2e-05 | 1.87e-05 | 0.0111 | 0.000509 | 0.00465 | 0.00228 | 6.13e-07 | 3.31e-07 | 0.00433 | 0.000908
3 | c1ccc2c(c1)c1ccccc1n2-c1ccc(-c2ccc(-n3c4ccccc4c4ccccc43)cc2)cc1 | 0.000153 | 7.54e-06 | 0.00491 | 0.0083 | 2.25e-06 | 9.41e-06 | 0.000997 |  |  |  |  |  |  |  |  | 
4 | c1ccc(N(c2ccc(-c3ccc(N(c4ccccc4)c4cccc5ccccc45)cc3)cc2)c2cccc3ccccc23)cc1 | 2.11e-05 | 1.56e-06 | 0.00131 | 0.00268 | 5.59e-07 | 3.15e-06 | 0.000234 |  |  |  |  |  |  |  |  | 
5 | O=C(O)c1cccnc1Nc1cccc(C(F)(F)F)c1 | 0.0288 | 0.00131 | 0.000297 | 0.00166 | 0.0138 | 5.35e-06 | 7.06e-05 |  |  |  |  |  |  |  |  | 
6 | c1cc2cccc3c4cccc5cccc(c(c1)c23)c54 | 0.000301 | 4.68e-05 | 0.00177 | 0.00134 | 2.42e-05 | 5.53e-05 | 0.000444 |  |  |  |  |  |  |  |  | 
7 | c1ccc2cc3cc4ccccc4cc3cc2c1 | 3.27e-05 | 7.97e-06 | 0.00014 | 0.000132 | 6.91e-06 | 1.5e-05 | 4.61e-05 |  |  |  |  |  |  |  |  | 

From BigSolDB 2.1
